In PubChem BioAssay AID743357 (Broad Institute, 2014):
The source made the active and inactive calls. How the calls were made is not given here.

Target: BioA, adenosylmethionine-8-amino-7-oxononanoate aminotransferase (Mycobacterium tuberculosis)
Assay: BioA aminotransferase inhibition, biochemical, coupled fluorescence displacement, 20-point, dry powder, dose response (AID 743357)
Conditions: coupled fluorescence displacement assay
[1] = measured here: test 2 replicate AC50
[2] = measured here: test 1 replicate AC50

Structure (SMILES) | AC50 [nM] | activity change, negative = inhibition (at 10 µM (top of the series)) | other results
COCC(=O)N1CC[C@@H]2[C@@H](CO)N(C)c3ccc(-c4cccc(F)c4)cc3[C@@H]21 | 55.4 |  | AC50 [1]: 55.4 nM
CC(=O)c1ccc(N2CCN(C(=O)c3cccc4c3OCO4)CC2)cc1 | 1580 |  | AC50 [2]: 1580 nM
CN1c2ccc(-c3cccc(F)c3)cc2[C@@H]2[C@@H](CCN2C(=O)c2ccc3c(c2)OCO3)[C@@H]1CO |  |  | activity change, negative = inhibition (at 5.6 µM (top of the series)): inactive
COC(=O)CCCCCCC(=O)N1CC[C@@H]2[C@@H](CO)N(C)c3ccc(-c4cccc(F)c4)cc3[C@@H]21 |  | inactive | AC50 [1]: > 20000 nM
CN1c2ccc(-c3cccc(F)c3)cc2[C@H]2[C@H](CCN2C(=O)Nc2ccccc2F)[C@H]1CO |  | inactive | 
CN1c2ccc(-c3ccc(F)cc3)cc2[C@H]2[C@H](CCN2C(=O)Nc2ccc(F)cc2)[C@H]1CO |  | inactive | 
CC(=O)c1ccc(N2CCN(C(=O)c3ccccc3F)CC2)cc1 | 6400 |  | AC50 [1]: 6400 nM
O=C(c1ccc2c(c1)OCO2)N1CCN(c2ccc(OC(F)(F)F)cc2)CC1 |  | inactive | 
CN1c2ccc(-c3ccc(F)cc3)cc2[C@H]2[C@H](CCN2C(=O)Cc2cccnc2)[C@H]1CO |  |  | activity change, negative = inhibition (at 9 µM (top of the series)): inactive
CC(=O)c1ccc(N2CCN(C(=O)c3ccc4c(c3)OCO4)CC2)cc1 | 49.7 |  | AC50 [2]: 30.1 nM; AC50 [1]: 69.2 nM
O=C(c1ccc2c(c1)OCO2)N1CCN(c2ccc(S(=O)(=O)C(F)(F)F)cc2)CC1 |  | inactive | 
CNS(=O)(=O)c1ccc(N2CCN(C(=O)c3ccc4c(c3)OCO4)CC2)cc1 |  | inactive | 
CC(=O)c1ccc(N2CCN(C(=O)c3ccc4c(c3)OC(F)(F)O4)CC2)cc1 |  | inactive | 
CC(=O)c1ccc(N2CCN(C(=O)c3ccccc3Cl)CC2)cc1 | 8240 |  | AC50 [1]: 8240 nM
CN1c2ccc(-c3cccc(F)c3)cc2[C@H]2[C@H](CCN2C(=O)Cc2cccnc2)[C@H]1CO |  | inactive | AC50 [1]: > 20000 nM
CC(=O)c1ccc(N2CCN(C(=O)c3cc4c(cc3C)OCO4)CC2)cc1 | 1090 |  | AC50 [2]: 1090 nM
CC(=O)c1ccc(N2CCN(C(=O)c3ccc4ocnc4c3)CC2)cc1 | 198 |  | AC50 [2]: 198 nM
CCCNC(=O)N1CC[C@@H]2[C@@H](CO)N(C)c3ccc(-c4ccc(F)cc4)cc3[C@@H]21 |  | inactive | AC50 [1]: > 20000 nM
COc1ccc(NC(=O)N2CC[C@@H]3[C@@H](CO)N(C)c4ccc(-c5ccc(F)cc5)cc4[C@@H]32)cc1 |  | inactive | 
CN1c2ccc(-c3ccc(F)cc3)cc2[C@H]2[C@H](CCN2C(=O)Nc2cc(F)ccc2F)[C@H]1CO |  | inactive | 
CN1c2ccc(-c3ccc(F)cc3)cc2[C@H]2[C@H](CCN2C(=O)Cc2ccccn2)[C@H]1CO |  | inactive | 
CC(=O)c1ccc(N2CC3(CN(C(=O)c4ccc5c(c4)OCO5)C3)C2)cc1 |  | inactive | 
CC(=O)c1ccc(N2CCN(C(=O)c3ccc(Cl)c(Cl)c3)CC2)cc1 | 217 |  | AC50 [2]: 217 nM
COc1ccccc1NC(=O)N1CC[C@@H]2[C@@H](CO)N(C)c3ccc(-c4cccc(F)c4)cc3[C@@H]21 |  | inactive | 
CC(=O)c1ccc(N2CCN(S(=O)(=O)c3ccc4c(c3)OCO4)CC2)cc1 |  | inactive | 

Structure (SMILES) | AC50 [nM] | activity change, negative = inhibition (at 10 µM (top of the series)) | other results
CC(=O)c1ccc(N2CCN(C(=O)c3ccc4c(c3C)OCO4)CC2)cc1 | 53.7 |  | AC50 [2]: 53.7 nM
CC(=O)c1ccc(N2CCN(C(=O)c3ccc4snnc4c3)CC2)cc1 | 1850 |  | AC50 [2]: 1850 nM
CN1c2ccc(-c3cccc(F)c3)cc2[C@H]2[C@H](CCN2C(=O)Cc2ccccc2)[C@H]1CO |  | inactive | 
CN1c2ccc(-c3cccc(F)c3)cc2[C@@H]2[C@@H](CCN2C(=O)c2ccc3c(c2)OCO3)[C@H]1CO |  | inactive | 
COc1cccc(NC(=O)N2CC[C@@H]3[C@@H](CO)N(C)c4ccc(-c5cccc(F)c5)cc4[C@@H]32)c1 |  | inactive | 
CC(=O)c1ccc(NCCNC(=O)c2ccc3c(c2)OCO3)cc1 |  | inactive | 
COc1ccccc1C(=O)N1CCN(c2ccc(C(C)=O)cc2)CC1 |  | inactive | AC50 [1]: > 20000 nM
CC(=O)c1ccc(N2CCN(C(=O)Nc3ccc4c(c3)OCO4)CC2)cc1 |  | inactive | AC50 [2]: > 20000 nM
CC(=O)c1ccc(N2CCCN(C(=O)c3ccc4c(c3)OCO4)CC2)cc1 | 289 |  | AC50 [2]: 289 nM
CC(=O)c1ccc(N2CCN(C(=O)c3ccc4c(c3)OCO4)[C@H](C)C2)cc1 | 55.3 |  | AC50 [1]: 55.3 nM
CC(C)NC(=O)N1CC[C@@H]2[C@@H](CO)N(C)c3ccc(-c4ccc(F)cc4)cc3[C@@H]21 |  | inactive | AC50 [1]: > 20000 nM
CN(C)S(=O)(=O)c1ccc(N2CCN(C(=O)c3ccc4c(c3)OCO4)CC2)cc1 |  | inactive | 
CNC(=O)c1ccc(N2CCN(C(=O)c3ccc4c(c3)OCO4)CC2)cc1 |  | inactive | AC50 [1]: > 20000 nM
CC(=O)c1ccc(N2CCN(C(=O)c3ccc4c(c3)OC(C)(C)O4)CC2)cc1 |  | inactive | 
COc1ccc(NC(=O)N2CC[C@@H]3[C@@H](CO)N(C)c4ccc(-c5cccc(F)c5)cc4[C@@H]32)cc1 |  | inactive | 
COc1cc(C(=O)N2CCN(c3ccc(C(C)=O)cc3)CC2)cc2c1OCO2 | 181 |  | AC50 [2]: 181 nM
CC(=O)c1ccc(N2CCN(C(=O)c3cc4c(cn3)OCO4)CC2)cc1 |  | inactive | AC50 [2]: > 20000 nM
COc1ccccc1NC(=O)N1CC[C@@H]2[C@@H](CO)N(C)c3ccc(-c4ccc(F)cc4)cc3[C@@H]21 |  | inactive | 
CC(=O)c1ccc(N2CCN(C(=O)c3cc4c(cc3Cl)OCO4)CC2)cc1 | 6570 |  | AC50 [2]: 6570 nM
CCC(=O)N1CC[C@@H]2[C@@H](CO)N(C)c3ccc(-c4ccc(F)cc4)cc3[C@@H]21 | 2820 |  | AC50 [1]: 2820 nM
CN1c2ccc(-c3cccc(F)c3)cc2[C@H]2[C@H](CCN2C(=O)c2ccc3c(c2)OCO3)[C@@H]1CO |  | inactive | 
CCCCCCCC(=O)N1CC[C@@H]2[C@@H](CO)N(C)c3ccc(-c4cccc(F)c4)cc3[C@@H]21 |  | inactive | 
CC(=O)c1ccc(N2CC3CC2CN3C(=O)c2ccc3c(c2)OCO3)cc1 (stereo not given) |  | inactive | AC50 [2]: > 20000 nM
O=C(c1ccc2c(c1)OCO2)N1CCN(c2ccc(C(F)(F)F)cc2)CC1 |  | inactive | AC50 [2]: > 20000 nM
